For 47 molecules, IC50 results are on record in patent US20260008768A1, “UREA DERIVATIVES FOR INHIBITING NLRP3 AND USES THEREOF” (VENTUS THERAPEUTICS U.S., INC., priority 2023, published 2026).

pIC50: −log10 of the molar value.

What is called pIC50 is the IC50 on a negative log10 scale, so that one unit is a factor of ten.

The target in the first assay is human NLRP3 (Homo sapiens, UniProt Q96P20). Briefly: Scintillation Proximity (SPA) NLRP3 Assay, displacement of 3H-MCC950. The class given is binding. The settings on record: Table B, activity class; displacement of 3H-MCC950 from human NLRP3. How it is done: Improved NLRP3 binding correlates with increased affinity for NLRP3 protein and, by extension, increased ability to interfere with its function.
human NLRP3, sequence (Q96P20 whole entry): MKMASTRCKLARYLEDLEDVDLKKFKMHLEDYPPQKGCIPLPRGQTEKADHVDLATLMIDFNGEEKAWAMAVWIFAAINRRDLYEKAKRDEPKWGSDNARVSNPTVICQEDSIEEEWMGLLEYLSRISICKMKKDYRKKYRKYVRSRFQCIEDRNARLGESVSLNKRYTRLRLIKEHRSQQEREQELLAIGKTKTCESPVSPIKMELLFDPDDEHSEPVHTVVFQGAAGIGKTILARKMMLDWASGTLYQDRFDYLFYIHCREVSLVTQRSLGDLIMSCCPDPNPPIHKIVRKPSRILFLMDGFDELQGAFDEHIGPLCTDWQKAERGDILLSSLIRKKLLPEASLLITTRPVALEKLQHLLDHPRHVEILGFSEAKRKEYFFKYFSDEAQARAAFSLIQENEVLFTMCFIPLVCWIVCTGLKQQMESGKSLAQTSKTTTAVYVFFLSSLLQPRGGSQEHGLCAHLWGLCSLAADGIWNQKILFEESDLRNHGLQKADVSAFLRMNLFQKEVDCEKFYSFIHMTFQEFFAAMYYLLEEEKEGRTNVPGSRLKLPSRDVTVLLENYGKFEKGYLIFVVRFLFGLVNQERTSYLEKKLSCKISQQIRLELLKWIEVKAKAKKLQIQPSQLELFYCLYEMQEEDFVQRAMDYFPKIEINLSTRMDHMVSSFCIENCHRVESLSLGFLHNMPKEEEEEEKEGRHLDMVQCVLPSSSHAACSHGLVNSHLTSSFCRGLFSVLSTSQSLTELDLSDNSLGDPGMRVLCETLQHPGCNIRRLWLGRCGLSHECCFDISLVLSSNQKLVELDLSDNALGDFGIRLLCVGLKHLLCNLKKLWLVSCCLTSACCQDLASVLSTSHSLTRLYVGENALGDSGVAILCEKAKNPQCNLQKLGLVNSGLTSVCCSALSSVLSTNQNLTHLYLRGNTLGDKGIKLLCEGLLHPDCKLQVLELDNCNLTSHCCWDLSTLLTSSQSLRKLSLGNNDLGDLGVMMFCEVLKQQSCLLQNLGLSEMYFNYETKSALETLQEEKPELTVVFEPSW
SPA experiments were conducted in a total volume of 20 μL assay buffer containing 20 mM HEPES pH 7.5, 150 mM NaCl, 5 mM MgCl2, 0.01% (v/v) Tween-20, 0.01% (w/v) bovine serum albumin (BSA) and 100 μM of adenosine diphosphate (ADP). A human NLRP3 protein (350 nM) (see, e.g., Sharif et al., Nature (2019) 570:338-343; Hochheiser et al., Nature (2022) 604:184-189; Adreeva et al., Cell (2021) 184:6299-6312; Wang et al., J Exp. Med. (2021) 219:e20211147) was incubated with various concentration of compounds in 5% dimethyl sulfoxide (DMSO) final for 15 minutes at room temperature in a white half-area 96 well OptiPlate (PerkinElmer #6002290) before adding 125 nM final of 3H-MCC950. After the addition of radiolabeled MCC950, the plate was incubated for 60 minutes at room temperature before adding 0.25 mg/ml of copper-coated polyvinyltoluene SPA beads (PerkinElmer #RPNQ0095). The plate was then transferred to a microplate counter (PerkinElmer 2450 Microbeta) to collect binding data. Binding data was analyzed 6 hrs post-PVT bead addition to allow sufficient time to reach equilibrium. Specific binding was calculated from averaged duplicates by subtracting signal from wells without NLRP3 protein.
SPA NLRP3 IC50 assay results are provided in Table B. “A” activity=<1 uM; “B” activity=1-10 uM; “C” activity=>10-50 uM; “D” activity=>50 uM-100 uM; and “E” activity=>100 uM.
In general terms: In a scintillation proximity assay essentially only radioactivity close to the scintillant gives light.
In turn, `C[C@H]1CCN(c2nnn[nH]2)C[C@H](NC(=O)N(C)c2ccc(OC(F)F)c(OC(F)F)c2)C1` (single isomer, unassigned) [16C*] gave a pIC50 of 4.00 to 4.30.
`C[C@H]1CCN(c2nnn[nH]2)C[C@H](NC(=O)N(C)c2c(F)cc(C3CC3)cc2F)C1` (single isomer, unassigned) [20C*] had a pIC50 of 4.30 to 5.00.
As to `C[C@H]1CCN(c2nnn[nH]2)C[C@H](NC(=O)N(C)c2ccc(OC(F)(F)F)c(F)c2F)C1` (single isomer, unassigned) [26C*], the pIC50 was under 4.00.
In turn, `C[C@@H]1CCN(c2nnn[nH]2)C[C@@H](NC(=O)N(C)c2ccc(Cl)c(F)c2)C1` (single isomer, unassigned) [12B*] had a pIC50 of 5.00 to 6.00.
In turn, `C[C@@H]1CCN(c2nnn[nH]2)C[C@@H](NC(=O)N(C)c2ccc(C3CC3)c(F)c2)C1` (single isomer, unassigned) [23B*] gave a negative logarithm of the IC50 (pIC50) of 5.00 to 6.00.
`C[C@H]1C[C@@H](NC(=O)N(C)c2ccc(OC(F)(F)F)cc2)[C@@H]2CC[C@H]1N2c1nnn[nH]1` (single isomer, unassigned) [45C*] showed a pIC50 of 4.00 to 4.30.
The molecule `C[C@@H]1CCN(c2nnn[nH]2)C[C@H](NC(=O)N(C)c2cnc(C(F)(F)F)nc2)C1` (single isomer, unassigned) [31A*] had a pIC50 of 4.30 to 5.00.
Molecule `C[C@H]1CCN(c2nnn[nH]2)C[C@@H](NC(=O)N(C)c2c(F)cc(OC(F)F)cc2F)C1` (single isomer, unassigned) [19D*] showed a negative logarithm of the IC50 (pIC50) of 5.00 to 6.00.
Same read-out and setting: with `C[C@H]1CCN(c2nnn[nH]2)C[C@H](NC(=O)N(C)c2ccc(C(F)F)c(F)c2)C1` (single isomer, unassigned) [22C*] the figure was 4.30 to 5.00; with `C[C@H]1C[C@@H](NC(=O)N(C)c2ccc(C(F)(F)F)cc2F)[C@@H]2CC[C@H]1N2c1nnn[nH]1` (single isomer, unassigned) [48C*], 4.00 to 4.30; with `C[C@H]1C[C@H](NC(=O)N(C)c2ccc(OC(F)(F)F)cc2)[C@@H]2CC[C@H]1N2c1nnn[nH]1` (single isomer, unassigned) [45D*], 5.00 to 6.00.
As to `CC1CCN(c2nnn[nH]2)CC(NC(=O)N(C)c2cnc(C(F)(F)F)nc2)C1` (single isomer, unassigned) [31C*], the pIC50 is 4.30 to 5.00.
The same measure, in the same setting: with `C[C@@H]1C[C@H](NC(=O)N(C)c2ccc(C(F)F)c(F)c2)[C@H]2CC[C@@H]1N2c1nnn[nH]1` (single isomer, unassigned) [53B*] the figure was under 4.00.
Still for that read-out and setting: with `C[C@H]1CCN(c2nnn[nH]2)C[C@H](NC(=O)N(C)c2ccc(Cl)cc2Cl)C1` (single isomer, unassigned) [7C*] the figure was 4.00 to 4.30.
Same read-out and setting: with `C[C@@H]1CCN(c2nnn[nH]2)C[C@@H](NC(=O)N(C)c2c(F)cc(C3CC3)cc2F)C1` (single isomer, unassigned) [20B*] the figure was 5.00 to 6.00; with `C[C@H]1CCN(c2nnn[nH]2)C[C@@H](NC(=O)N(C)c2ccc(OC(F)(F)F)c(OC(F)F)c2)C1` (single isomer, unassigned) [25D*], 4.30 to 5.00; with `C[C@H]1C[C@H](NC(=O)N(C)c2ccc(OC(F)F)c(OC(F)F)c2)[C@@H]2CC[C@H]1N2c1nnn[nH]1` (single isomer, unassigned) [64D*], 5.00 to 6.00.
`C[C@@H]1C[C@H](NC(=O)N(C)c2c(F)cc(OC(F)F)cc2F)[C@H]2CC[C@@H]1N2c1nnn[nH]1` (single isomer, unassigned) [61B*]: the pIC50 is under 4.00.
`C[C@H]1CCN(c2nnn[nH]2)C[C@@H](NC(=O)N(C)c2ccc(OC(F)(F)F)c(F)c2)C1` (single isomer, unassigned) [14D*] showed a negative logarithm of the IC50 (pIC50) of 4.30 to 5.00.
As to `C[C@H]1C[C@H](NC(=O)N(C)c2ccc(OC(F)(F)F)cc2F)[C@@H]2CC[C@H]1N2c1nnn[nH]1` (single isomer, unassigned) [56D*], the negative logarithm of the IC50 (pIC50) is 5.00 to 6.00.
In turn, `C[C@@H]1CCN(c2nnn[nH]2)C[C@@H](NC(=O)N(C)c2c(F)cc(OC(F)F)cc2F)C1` (single isomer, unassigned) [19B*] showed a pIC50 of 5.00 to 6.00.
On to `C[C@H]1CCN(c2nnn[nH]2)C[C@H](NC(=O)N(C)c2ncc(C(F)(F)F)cn2)C1` (single isomer, unassigned) [30C*], for which the pIC50 was under 4.00.
The same measure, in the same setting: with `C[C@H]1CCN(c2nnn[nH]2)C[C@@H](NC(=O)N(C)c2ccc(Cl)nc2)C1` (single isomer, unassigned) [29D*] the figure was 4.30 to 5.00.
On the same count and under the same terms, with `C[C@H]1C[C@H](NC(=O)N(C)c2ccc(C3CC3)c(F)c2)[C@@H]2CC[C@H]1N2c1nnn[nH]1` (single isomer, unassigned) [54D*] the figure was 4.30 to 5.00; with `C[C@H]1C[C@@H](NC(=O)N(C)c2c(F)cc(OC(F)(F)F)cc2F)[C@@H]2CC[C@H]1N2c1nnn[nH]1` (single isomer, unassigned) [62C*], 4.00 to 4.30; with `C[C@H]1C[C@@H](NC(=O)N(C)c2ccc(OC(F)(F)F)cc2F)[C@@H]2CC[C@H]1N2c1nnn[nH]1` (single isomer, unassigned) [56C*], 4.00 to 4.30.
Same read-out and setting: with `C[C@H]1C[C@H](NC(=O)N(C)c2ccc(OC(F)F)c(F)c2)[C@@H]2CC[C@H]1N2c1nnn[nH]1` (single isomer, unassigned) [52D*] the figure was 4.30 to 5.00; with `C[C@@H]1C[C@@H](NC(=O)N(C)c2ccc(Cl)c(F)c2)[C@H]2CC[C@@H]1N2c1nnn[nH]1` (single isomer, unassigned) [50A*], 5.00 to 6.00.
Take `C[C@H]1CCN(c2nnn[nH]2)C[C@@H](NC(=O)N(C)c2ccc(Cl)cc2Cl)C1` (single isomer, unassigned) [7D*]: the pIC50 is 4.30 to 5.00.
The molecule `C[C@H]1C[C@@H](NC(=O)N(C)c2ccc(OC(F)(F)F)c(F)c2)[C@@H]2CC[C@H]1N2c1nnn[nH]1` (single isomer, unassigned) [51C*] had a pIC50 of under 4.00.
On to `C[C@H]1C[C@@H](NC(=O)N(C)c2ccc(OC(F)(F)F)c(F)c2F)[C@@H]2CC[C@H]1N2c1nnn[nH]1` (single isomer, unassigned) [59C*], for which the pIC50 is under 4.00.
Regarding `C[C@@H]1CCN(c2nnn[nH]2)C[C@H](NC(=O)Nc2ccc(Cl)cc2F)C1` (single isomer, unassigned) [27A*], the pIC50 was 5.00 to 6.00.
On the same count and under the same terms, with `C[C@@H]1C[C@H](NC(=O)N(C)c2ccc(C(F)(F)F)c(F)c2F)[C@H]2CC[C@@H]1N2c1nnn[nH]1` (single isomer, unassigned) [47B*] the figure was 4.00 to 4.30.
Regarding `C[C@H]1CCN(c2nnn[nH]2)C[C@H](NC(=O)N(C)c2ccc(OC(F)(F)F)cc2)C1` (single isomer, unassigned) [10C*], the pIC50 was under 4.00.
Turning to `C[C@H]1CCN(c2nnn[nH]2)C[C@@H](NC(=O)N(C)c2ccc(OC(F)F)c(F)c2)C1` (single isomer, unassigned) [15D*], the negative logarithm of the IC50 (pIC50) is 5.00 to 6.00.
`C[C@H]1C[C@H](NC(=O)N(C)c2c(F)cc(C3CC3)cc2F)[C@@H]2CC[C@H]1N2c1nnn[nH]1` (single isomer, unassigned) [60D*]: the pIC50 is 5.00 to 6.00.
The same measure, in the same setting: with `C[C@@H]1C[C@H](NC(=O)N(C)c2ccc(OC(F)(F)F)cc2)[C@H]2CC[C@@H]1N2c1nnn[nH]1` (single isomer, unassigned) [45B*] the figure was 4.30 to 5.00; with `C[C@H]1C[C@@H](NC(=O)N(C)c2ccc3nccn3c2)CN(c2nnn[nH]2)C1` [Compound 37A, 1-(imidazo[1,2-a]pyridin-6-yl)-1-methyl-3-((3R,5S)-5-methyl-1-(1H-tetrazol-5-yl)piperidin-3-yl)urea], under 4.00; with `C[C@@H]1CCN(c2nnn[nH]2)C[C@H](NC(=O)N(C)c2ncc(C(F)(F)F)cn2)C1` (single isomer, unassigned) [30A*], under 4.00.
With `C[C@H]1C[C@@H](NC(=O)N(C)c2ccc(OC(F)F)cc2)[C@@H]2CC[C@H]1N2c1nnn[nH]1` (single isomer, unassigned) [42C*], the pIC50 was under 4.00.
In the case of `C[C@H]1CCN(c2nnn[nH]2)C[C@H](NC(=O)N(C)c2ccc(C3CC3)c(F)c2)C1` (single isomer, unassigned) [23C*], the pIC50 was 4.30 to 5.00.
Still for that read-out and setting: with `C[C@H]1CCN(c2nnn[nH]2)C[C@H](NC(=O)N(C)c2ccc(C(F)(F)F)nn2)C1` (single isomer, unassigned) [33C*] the figure was 4.00 to 4.30; with `CCN(C(=O)N[C@H]1C[C@H](C)CCN(c2nnn[nH]2)C1)c1ccc(OC(F)(F)F)cc1` (single isomer, unassigned) [43B*], over 6.00; with `C[C@@H]1CCN(c2nnn[nH]2)C[C@@H](NC(=O)N(C)c2ccc(OC(F)F)cc2F)C1` (single isomer, unassigned) [17B*], 5.00 to 6.00.
On the same count and under the same terms, with `C[C@H]1CCN(c2nnn[nH]2)C[C@@H](NC(=O)N(C)c2ccc(OC(F)F)cc2)C1` (single isomer, unassigned) [11D*] the figure was 5.00 to 6.00.
As for `C[C@H]1CCN(c2nnn[nH]2)C[C@H](NC(=O)N(C)c2ccc(OC(F)F)cc2F)C1` (single isomer, unassigned) [17C*], the negative-log IC50 (pIC50) was 5.00 to 6.00.
On to `C[C@@H]1CCN(c2nnn[nH]2)C[C@@H](NC(=O)N(C)c2ccc(OC(F)(F)F)cc2F)C1` (single isomer, unassigned) [24B*], for which the pIC50 was 5.00 to 6.00.

The same assay, now with this note: Table C; displacement of 3H-MCC950 from human NLRP3.
The molecule `C[C@@H]1CCN(c2nnn[nH]2)C[C@H](NC(=O)Nc2ccc(Cl)cc2F)C1` (single isomer, unassigned) [27A*] gave a pIC50 of 5.85.
